For data set [1], the system named is genes responsive to PPARαL treatment in rat liver. The data set can be described thus: GENECALLING differential gene expression analysis of liver from rats treated with PPARα ligand GW9578 vs vehicle control. The format is in vivo. How it is done:
The present invention is based in part on the discovery of changes in expression patterns of multiple nucleic acid sequences, including sequences encoding known genes as well as heretofore undescribed nucleic acid sequences, in rodent liver cells following exposure to a ligand for a PPARα. The differences in gene expression were identified following administration of 1.5 mg/kg/day of a PPARα-specific ligand named GW9578. This compound is described in Brown et al., J. Med. Chem.42:3785-8, 1999, whose contents are incorporated herein in their entirety.
GW9578 was administered to male 10-14 week old Sprague Dawley rats in b.i.d. dosing for 3 days. The animals were sacrificed 24 hours following the last dose, and liver tissue was analysis using the GENECALLING® sequence identification methods described U.S. Pat. No. 5,871,697. The contents of this application are incorporated herein by reference in their entirety.
The GENECALLING® sequence identification method is performed by digesting a cDNA with a pair of restriction endonucleases. The digested fragments are differentially tagged at both the 3- and 5′-termini, and amplified via polymerase chain reaction (PCR) with a fluorescent label that is detected upon subsequent electrophoresis. In the studies with PPARα ligand GW9578, a total of 48 different reactions were performed, each with a unique pair of restriction enzymes. […] This number represents a non-redundant coverage of approximately 85% of the total number of hepatic genes.
The hepatic response to treatment with the PPARαL compound was determined by comparing in triplicate the relative abundance of each of the 8973 gene fragments in the PPARαL-treated vs. the PPARα-untreated rodents. Comparison was performed using commercially available GENESCAPE® expression analysis software. PPARαL administration detectably altered the expression of 218 of the 8973 (2.4%) hepatic genes fragments by greater than 1.5-fold. […] Novel genes, corresponding to fragments with no match within the database, were subsequently isolated and sequenced (FIG. 4). […] There was an excellent correlation between the expression analysis results derived by the GENECALLING® sequence identification methods in comparison with those results previously obtained by the use of reverse transcriptase-based PCR (“RT-PCR”) (See FIG. 3).
Harlan Sprague Dawley rats 10-14 weeks old were treated with oral tablet doses of: (i) PPARαL in an n-methylglucamine carrier twice daily (b.i.d) for a total of 3 days (3 rats total) or (ii) PPARαL in an n-methylglucamine carrier twice daily (b.i.d.) for a total of 3 days (3 rats total) or (iii) the n-methylglucamine carrier alone twice daily (b.i.d.) for a total of 3 days (3 rats total). On the fourth day, approximately 12 hours following the last dose of drug the animals were sacrificed. Liver and adipose tissue were harvested from all animals and snap frozen in liquid nitrogen.
Total cellular RNA was isolated with Trizol (GIBCO-BRL; Baltimore Md.) using a one-tenth volume of bromochloropropane (Molecular Research Corp.; Cincinnati, Ohio) to facilitate phase separation. Contaminating DNA was removed by treatment with DNase I (Promega Biotech; Milwaukee, Wis.) in the presence of 0.01 M DTT (GIBCO-BRL; Baltimore, Md.) and 1 Unit/1 RNAsin (Promega Biotech; Milwaukee, Wis.). Following phenol/chloroform extraction, RNA quality was evaluated by spectrophotometry and formaldehyde agarose gel electrophoresis, and RNA yield was estimated by fluorometry with OliGreen® (Molecular Probes; Eugene, Oreg.). Poly(A)^+ RNA was prepared from […] of total RNA by use of oligo(dT) paramagnetic beads (PerSeptive Biosynthesis; Boston, Mass.), and quantitated with fluorometry.
First strand cDNA was prepared from […] of poly(A)^+ RNA with 200 pmoles oligo(dT)25V (where V=A, C or G) (PerSeptive Biosynthesis; Boston, Mass.) using 40 Units of SuperScript II reverse transcriptase (GIBCO-BRL; Baltimore, Md.). […]

A further data set has as its system Histidine decarboxylase. Conditions: rat stomach; cited from earlier work.
The test system of data set [2] is CYP2B1. The note with it: in vivo mouse model; cited from earlier work.
Data set [3] deals with CYP2B1. The note with it: rat hepatocytes; cited from earlier work.
For the next data set, the system named is GSTa isoform. The note with it: rat livers, precancerous change; cited from earlier work.
A further data set concerns acetyl CoA carboxylase. The note with it: co-incubation of hepatocytes with ligand; cited from earlier work.
Setting [4] is: rat liver, 1.5 mg/kg/day b.i.d. 3 days, vs vehicle control.
[5] abbreviates: rat liver, treatment with PPARαL.
[6] abbreviates: rat liver, upon treatment with PPARα ligand.

Each structure is given as a SMILES string. Like-named read-outs stand apart in the source and are kept apart here.

For the molecule `CCCCCCCN(CCc1ccc(SC(C)(C)C(=O)O)cc1)C(=O)Nc1ccc(F)cc1F` [GW9578], the “number of the 8973 hepatic gene fragments whose expression was altered by greater than 1.5-fold” value in data set [1] (1.5 mg/kg/day, b.i.d. for 3 days, male Sprague Dawley rats, liver, treated vs untreated, triplicate) amounted to 218. Also, in data set [1] (setting [4]), the D-aminolevulinate synthetase up-regulation was 4 fold, the acetoacetyl-CoA thiolase upregulation is on record as 100 fold, the acetyl-CoA-decarboxylase modulation result is “+2 fold” and the “apolipoprotein A-I modulation” value is −2 fold. For the same molecule, in data set [1] (setting [4]), the “carnitine octanoyl transferase upregulation” value is recorded as 4 fold, the catalase upregulation worked out at 12 fold, the “down-regulation of metallothionein 1” value worked out at 100 fold and the epoxide hydrolase upregulation worked out at 10 fold. In addition, in data set [1] (setting [4]), the “novel isoform of acyl-CoA oxidase upregulation” value is given as 10 fold, the porphobilinogen deaminase up-regulation was 60 fold, the “reduction in steroid 3-α-dehydrogenase transcript levels” value came out at 60 fold and the “steroid 3-delta-dehydrogenase modulation” value is listed as “off”. Also, in data set [1] (setting [4]), the “very long chain acyl CoA synthetase upregulation” value came out at 4 fold. Further, the “novel gene similar in sequence to mouse carnitine acetyltransferase, expression” value in data set [1] (rat liver, following PPARα ligand treatment) is reported as “moderately upregulated”. Also, the “histidine decarboxylase gene upregulation” value in data set [1] (rat liver, following exposure to PPARα ligand) is recorded as “six”. In data set [1] (setting [5]), the “17-α-hydroxysteroid dehydrogenase IV transcription” value is listed as “up-regulated” and the “genes encoding the other steroid catabolism enzymes (steroid-3-α-dehydrogenase, hydroxysteroid sulfotransferase, CYP p450 M1, SMP-2, UDP-glucosuronyl transferase 21)” value was “downregulated”. Besides, in data set [1] (setting [6]), the acetyl-CoA carboxylase expression entry was “upregulation”; the “decrease in expression of the gene for glutathione S transferase Ya subunit” value was “three”; the “differential regulation of ATP citrate lyase and fatty acid synthase” value is reported as “not detected”; the malic enzyme expression entry is reported as “upregulation”. Also, the stearyl-CoA desaturase expression result in data set [1] (setting [6]) is “upregulation”.

Consider `CC(C)(Oc1ccc(C2CC2(Cl)Cl)cc1)C(=O)O` (stereo not shown) [ciprofibrate], for which, in the data set on Histidine decarboxylase, the histidine decarboxylase expression entry is recorded as “upregulated”.

As to `CCOC(=O)C(C)(C)Oc1ccc(Cl)cc1` [clofibrate], the “gene encoding CYP2B1, expression” value with CYP2B1 [2] is “not been observed to change”.

`CC(C)(Oc1ccc(Cl)cc1)C(=O)O` [clofibric acid]: in the data set with CYP2B1 [3], the “gene encoding CYP2B1, expression” value is “upregulated”.

With `CC(C)(Oc1ccc(C2CCCc3ccccc32)cc1)C(=O)O` (stereo not shown) [nafenopin], in the data set with GSTa isoform, the GSTa isoform level result is recorded as “decrease”. In the data set on acetyl CoA carboxylase, the “acetyl CoA carboxylase activity” value is listed as “reduced”.

The values above are taken from US6551812B1, “Compositions and methods relating to the peroxisomal proliferator activated receptor-α mediated pathway” (CuraGen Corporation, priority 1998, dated 2003).
